{"source": "ChEMBL document CHEMBL1697723", "about": "“A predictive ligand-based Bayesian model for human drug-induced liver injury” (Drug Metab Dispos, 2010)", "data": [{"test_system": "Hepatotoxicity", "experiment": "(§1) Human drug-induced liver injury (DILI) modelling dataset from Ekins et al", "settings": "not given", "values": [{"compound": "CC(C)(C)NC[C@H](O)COc1nsnc1N1CCOCC1.O=C(O)/C=C\\C(=O)O", "note": "[TIMOLOL MALEATE]", "Hepatotoxicity": "DILI positive (training set)"}, {"compound": "NC[C@H]1O[C@H](O[C@H]2[C@H](O)[C@@H](O[C@H]3O[C@H](CO)[C@@H](O)[C@H](N)[C@H]3O)[C@H](N)C[C@@H]2N)[C@H](N)C[C@@H]1O", "note": "[TOBRAMYCIN]", "Hepatotoxicity": "DILI positive (test set)"}, {"compound": "Cc1ccc(S(=O)(=O)NC(=O)NN2CCCCCC2)cc1", "note": "[TOLAZAMIDE]", "Hepatotoxicity": "DILI positive (test set)"}, {"compound": "Cc1ccc(C(=O)c2ccc(CC(=O)O)n2C)cc1", "note": "[TOLMETIN]", "Hepatotoxicity": "DILI positive (training set)"}, {"compound": "COc1ccc2c(C(=S)N(C)CC(=O)O)cccc2c1C(F)(F)F", "note": "[TOLRESTAT]", "Hepatotoxicity": "DILI positive (test set)"}, {"compound": "CC1(C)O[C@@H]2[C@@H](CO[C@@]3(COS(N)(=O)=O)OC(C)(C)O[C@@H]23)O1", "note": "[TOPIRAMATE]", "Hepatotoxicity": "DILI negative (test set)"}, {"compound": "Cl.O=c1n(CCCN2CCN(c3cccc(Cl)c3)CC2)nc2ccccn12", "note": "[TRAZODONE HYDROCHLORIDE]", "Hepatotoxicity": "DILI positive (training set)"}, {"compound": "CC1=C(/C=C/C(C)=C/C=C/C(C)=C/C(=O)O)C(C)(C)CCC1", "note": "[TRETINOIN]", "Hepatotoxicity": "DILI positive (training set)"}, {"compound": "ClC=C(Cl)Cl", "note": "[TRICHLOROETHYLENE]", "Hepatotoxicity": "DILI positive (test set)"}, {"compound": "CN1CCN(CCCN2c3ccccc3Sc3ccc(C(F)(F)F)cc32)CC1", "note": "[TRIFLUOPERAZINE]", "Hepatotoxicity": "DILI positive (training set)"}, {"compound": "CN1C(=O)OC(C)(C)C1=O", "note": "[TRIMETHADIONE]", "Hepatotoxicity": "DILI positive (training set)"}, {"compound": "COc1cc(C(=O)NCc2ccc(OCCN(C)C)cc2)cc(OC)c1OC.Cl", "note": "[TRIMETHOBENZAMIDE HYDROCHLORIDE]", "Hepatotoxicity": "DILI positive (test set)"}, {"compound": "CN(C)CCN(Cc1ccccc1)c1ccccn1.Cl", "note": "[TRIPELENNAMINE HYDROCHLORIDE]", "Hepatotoxicity": "DILI positive (test set)"}, {"compound": "Cc1c(C)c2c(c(C)c1O)CCC(C)(COc1ccc(CC3SC(=O)NC3=O)cc1)O2", "note": "(stereo not drawn) [TROGLITAZONE]", "Hepatotoxicity": "DILI positive (test set)"}, {"compound": "CO[C@H]1C[C@H](O[C@H]2[C@H](C)[C@@H](O[C@@H]3O[C@H](C)C[C@H](N(C)C)[C@H]3OC(C)=O)[C@@H](C)C[C@@]3(CO3)C(=O)[C@H](C)[C@@H](OC(C)=O)[C@@H](C)[C@@H](C)OC(=O)[C@@H]2C)O[C@@H](C)[C@@H]1OC(C)=O", "note": "[TROLEANDOMYCIN]", "Hepatotoxicity": "DILI positive (test set)"}, {"compound": "N[C@@H]1[C@H]2CN(c3nc4c(cc3F)c(=O)c(C(=O)O)cn4-c3ccc(F)cc3F)C[C@@H]12", "note": "[TROVAFLOXACIN]", "Hepatotoxicity": "DILI positive (training set)"}, {"compound": "C[C@H](CCC(=O)O)[C@H]1CC[C@H]2[C@@H]3[C@@H](O)C[C@@H]4C[C@H](O)CC[C@]4(C)[C@H]3CC[C@]12C", "note": "[URSODIOL]", "Hepatotoxicity": "DILI negative (training set)"}, {"compound": "CCCCC(=O)O", "note": "[VALERIC ACID]", "Hepatotoxicity": "DILI negative (test set)"}, {"compound": "CN[C@H](CC(C)C)C(=O)N[C@H]1C(=O)N[C@@H](CC(N)=O)C(=O)N[C@H]2C(=O)N[C@H]3C(=O)N[C@H](C(=O)N[C@H](C(=O)O)c4cc(O)cc(O)c4-c4cc3ccc4O)[C@H](O)c3ccc(c(Cl)c3)Oc3cc2cc(c3O[C@@H]2O[C@H](CO)[C@@H](O)[C@H](O)[C@H]2O[C@H]2C[C@](C)(N)[C@H](O)[C@H](C)O2)Oc2ccc(cc2Cl)[C@H]1O", "note": "[VANCOMYCIN]", "Hepatotoxicity": "DILI positive (training set)"}, {"compound": "Nc1ncnc2c1ncn2[C@@H]1O[C@H](CO)[C@@H](O)[C@@H]1O", "note": "[VIDARABINE]", "Hepatotoxicity": "DILI negative (training set)"}, {"compound": "CC[C@]1(O)C[C@@H]2CN(CCc3c([nH]c4ccccc34)[C@@](C(=O)OC)(c3cc4c(cc3OC)N(C)[C@H]3[C@@](O)(C(=O)OC)[C@H](OC(C)=O)[C@]5(CC)C=CCN6CC[C@]43[C@@H]65)C2)C1.O=S(=O)(O)O", "note": "[VINBLASTINE SULFATE]", "Hepatotoxicity": "DILI negative (test set)"}, {"compound": "CC[C@]1(O)C[C@H]2CN(CCc3c([nH]c4ccccc34)[C@@](C(=O)OC)(c3cc4c(cc3OC)N(C=O)[C@H]3[C@@](O)(C(=O)OC)[C@H](OC(C)=O)[C@]5(CC)C=CCN6CC[C@]43[C@@H]65)C2)C1.O=S(=O)(O)O", "note": "[VINCRISTINE SULFATE]", "Hepatotoxicity": "DILI positive (test set)"}, {"compound": "CCCCCCCCCCCCCCCC(=O)OC/C=C(C)/C=C/C=C(C)/C=C/C1=C(C)CCCC1(C)C", "note": "[VITAMIN A PALMITATE]", "Hepatotoxicity": "DILI positive (test set)"}, {"compound": "CC(=O)CC(c1ccccc1)c1c(O)c2ccccc2oc1=O", "note": "(stereo not drawn) [WARFARIN]", "Hepatotoxicity": "DILI negative (training set)"}, {"compound": "CCOC(=O)CN[C@@H](C(=O)N1CC[C@H]1C(=O)NCc1ccc(/C(N)=N\\O)cc1)C1CCCCC1", "note": "[XIMELAGATRAN]", "Hepatotoxicity": "DILI positive (test set)"}, {"compound": "COc1cc(C(=O)NS(=O)(=O)c2ccccc2C)ccc1Cc1cn(C)c2ccc(NC(=O)OC3CCCC3)cc12", "note": "[ZAFIRLUKAST]", "Hepatotoxicity": "DILI positive (training set)"}, {"compound": "Cc1cn([C@H]2C[C@H](N=[N+]=[N-])[C@@H](CO)O2)c(=O)[nH]c1=O", "note": "[ZIDOVUDINE]", "Hepatotoxicity": "DILI positive (training set)"}, {"compound": "CC(c1cc2ccccc2s1)N(O)C(N)=O", "note": "(stereo not drawn) [ZILEUTON]", "Hepatotoxicity": "DILI positive (training set)"}, {"compound": "Cc1ccc(-c2nc3ccc(C)cn3c2CC(=O)N(C)C)cc1", "note": "[ZOLPIDEM]", "Hepatotoxicity": "DILI negative (test set)"}, {"compound": "Cc1cc(CC(=O)O)n(C)c1C(=O)c1ccc(Cl)cc1", "note": "[ZOMEPIRAC]", "Hepatotoxicity": "DILI negative (training set)"}, {"compound": "AURANOFIN", "Hepatotoxicity": "DILI positive (test set)"}, {"compound": "AUROTHIOGLUCOSE", "Hepatotoxicity": "DILI positive (test set)"}, {"compound": "AUROTHIOLAMATE", "Hepatotoxicity": "DILI positive (test set)"}, {"compound": "BISMUTH SUBSALICYLATE", "Hepatotoxicity": "DILI negative (test set)"}, {"compound": "CADMIUM DICHLORIDE", "Hepatotoxicity": "DILI positive (training set)"}, {"compound": "CARBOPLATIN", "Hepatotoxicity": "DILI positive (test set)"}, {"compound": "CISPLATIN", "Hepatotoxicity": "DILI positive (test set)"}, {"compound": "CYANOCOBALAMIN", "Hepatotoxicity": "DILI negative (training set)"}, {"compound": "GALLIUM NITRATE HYDRATE", "Hepatotoxicity": "DILI negative (training set)"}, {"compound": "LACTOSE, ANHYDROUS", "Hepatotoxicity": "DILI negative (test set)"}, {"compound": "POTASSIUM DICHROMATE", "Hepatotoxicity": "DILI positive (training set)"}]}, {"test_system": "Hepatotoxicity", "experiment": "as §1", "settings": "Liver", "values": [{"compound": "Clc1ccccc1CN1CCc2sccc2C1", "note": "[TICLOPIDINE]", "Hepatotoxicity": "DILI positive (training set)"}, {"compound": "Cc1ccc(C(=O)c2cc(O)c(O)c([N+](=O)[O-])c2)cc1", "note": "[TOLCAPONE]", "Hepatotoxicity": "DILI positive (test set)"}, {"compound": "Cl.N[C@@H]1C[C@H]1c1ccccc1", "note": "[TRANYLCYPROMINE HYDROCHLORIDE]", "Hepatotoxicity": "DILI negative (training set)"}, {"compound": "COc1cc(Cc2cnc(N)nc2N)cc(OC)c1OC", "note": "[TRIMETHOPRIM]", "Hepatotoxicity": "DILI positive (test set)"}, {"compound": "NC(CO)(CO)CO", "note": "[TROMETHAMINE]", "Hepatotoxicity": "DILI negative (test set)"}, {"compound": "Oc1ncc(N(CCCl)CCCl)c(O)n1", "note": "[URACIL MUSTARD]", "Hepatotoxicity": "DILI positive (test set)"}, {"compound": "Nc1ccn([C@H]2CC[C@@H](CO)O2)c(=O)n1", "note": "[ZALCITABINE]", "Hepatotoxicity": "DILI negative (training set)"}]}]}
